This is an account of results in patent publication US20200390729A1, “OPHTHALMIC TOPICAL COMPOSITION COMPRISING DOBESILIC ACID FOR TREATING DISEASES OF THE POSTERIOR SEGMENT OF THE EYE” (LABORATORIOS SALVAT, S.A., priority 2017, published 2020).

The subject of the data set is egg chorioallantoic membrane (CAM). Briefly: Ocular irritation assay (HET-CAM). As to conditions: 100 mg/ml, CAM observed for 5 minutes. Also noted: species or system White Leghorn chicken eggs. The text has this:
The HET-CAM is an alternative method to the Draize Rabbit Eye Test which mimics vascular changes in the chorioallantoic membrane, an analog for ocular conjunctiva, which can be used to determine the potential irritancy of a test substance. This method is based on that described in Hen's Egg Test-Chorioallantoic Membrane (HET-CAM) Test Method (ICCVAM-Recommended Test Method Protocol, NIH Publication No. 10-7553—Published 2010)
Fertilized white SPF (special pathogen free) White Leghorn chicken eggs were incubated at 37° C. and 60% humidity up to day 10. After determination of the viability of the embryo, a rectangular window was removed from the shell directly over the air cell and the egg membrane was carefully moistened with 2-3 ml 0.9% saline. After returning to the incubator for 30 minutes, the inner membrane was removed and the test substance was applied to the CAM membrane with a pipette. Eggs were observed continuously for 5 minutes for the appearance of lysis, hemorrhage and/or coagulation and an irritation score (IS) was determined following the ICCVAM-Recommended Test Method Protocol (NIH Publication No. 10-7553-Published 2010) guideline.

Turning to `O=S(=O)([O-])c1cc(O)ccc1O.[K+]` [potassium dobesilate], the HET-CAM irritation characterization result is on record as “not irritating” and the “HET-CAM lysis, haemorrhage or coagulation processes” value is “did not trigger any lysis, haemorrhage or coagulation processes”.
For the molecule `CCNCC.O=S(=O)(O)c1cc(O)ccc1O` [etamsylate, diethylamine 2,5-dihydroxybenzenesulfonate], the HET-CAM irritation characterization result is on record as “not irritating” and the “HET-CAM lysis, haemorrhage or coagulation processes” value is “did not trigger any lysis, haemorrhage or coagulation processes”.
